Consider four molecules from patent US20210253635A1, “PEPTIDIC PROTEIN KINASE C INHIBITORS AND USES THEREOF” (UNIVERSITE DE GENEVE, priority 2018, published 2021).

For assay [1], the system named is non-small cell lung cancer (NSCLC). As to conditions: NSCLC patients, compared to chemotherapies, before resistance appears; cited from earlier work.
Assay [2] concerns nasal epithelial monolayers (Mucilair human primary nasal epithelial cells). In words: FITC insulin permeabilization (apical to basolateral) across epithelial monolayer. To be noted: peptide 50 μM, apical side, compared to control (vehicle), FIG. 2. It is filed as cell-based. The source says: To assess the potential effects of peptides of the invention on the permeabilization of therapeutic molecules, FITC Insulin (Sigma-Aldrich, Buchs SG, Switzerland) is used as a model for assessing paracellular drug transport (apical to basolateral) across the epithelial monolayer.
Mucilair™ human primary nasal and bronchial epithelial cells (Epithelix sarl, Geneva, Switzerland) and Caco-2 human intestinal epithelial cells are used (Huang et. al., 2013, Toxicol. in Vitro 27: 1151-1156).
Before each experiment, the culture medium is removed from each compartment and the monolayer is washed once with 200 μl of saline (0.9%) and once with warm Hanks' Balanced Salt Solution (HBSS) (37° C.). In the basolateral compartment, 600 μL of pre-warmed HBSS is placed and the cells are returned to the incubator at 37° C. for 30 minutes to equilibrate. After equilibration, the peptides of the invention and the paracellular marker (FITC insulin) are applied to the apical side of an epithelial monolayer. Peptides P4 (SEQ ID NO: 2) and P3 (SEQ ID NO: 4) according to the invention are tested in comparison with a comparative peptide CP4 (SEQ ID NO: 3).
All peptides are used at a final concentration of 50 μM. The vehicle is used as a control (CTRL). The FD solution is added to the apical compartment to make a final volume of 200 μl. […] The fluorescence of FD is measured in black 96-well plates using a fluorescence plate reader (BioTek Synergy Mx plate reader, BioTek Instruments GmbH, Lucerne, Switzerland), using excitation and emission wavelengths of 485 and 520 nm, respectively. Cumulative release (ng) corresponds to the actual amount of drug released cumulatively and corresponds to the amount in the suspension medium at any time plus the amount of the drug lost during each sampling.

The test system of assay [3] is Mucilair human primary nasal epithelial cells. As to the kind of experiment: Trans-epithelial electrical resistance (TEER), epithelial integrity. As to conditions: peptide 100 μM, apical, FIG. 1. It is filed as cell-based. The method, then: Trans-epithelial electrical resistance (TEER): After addition of 200 μl of culture medium to the apical compartment of the tissue cultures, resistance is measured across cultures with an EVOMX volt-ohm-meter (World Precision Instruments UK, Stevenage) in triplicate for each time point. The TEER values (Ω) is converted normalized by using the following formula: TEER (Ω cm^2)=(resistance value (Ω)−100 (Ω))×0.33 (cm^2), where 100Ω is the resistance of the membrane and 0.33 cm^2 is the total surface of the epithelium.
To assess the potential effects of peptides of the invention on the epithelial integrity, transepithelial electrical resistance in the presence of a peptide of the invention is measured. Trans-epithelial electrical resistance (TEER) was measured as in Example 2 except that volt-ohm-meter was equipped with STX-2 chopstick electrodes (WPI, Sarasota, Fla., USA). Mucilair™ human primary nasal epithelial cells were used as in Example 2 (from single donor; EP01-Batch number MD069201). The peptide P4 (SEQ ID NO: 2) and comparative peptide […] both at a concentration of 100 μM in Mucilair™ medium and control solution (i.e., 50 μl of saline+50 μl of Mucilair™ medium) were administered to the apical compartment of the tissue cultures at the begging of the experiment (t=0) and the measurements were made after 20, 40, 60 and 80 minutes (t=20 min, t=40 min, t=60 min and t=80 min) of the incubation. All TEER values are expressed as percentage relative to control (the baseline value was 242 Ω*cm^2). All the experiments were performed at least 2 times (test 1 and 2).

Ends that are not written are not given here. * marks the point of attachment. Myristoyl = CCCCCCCCCCCCCC(=O)*

`COc1cc2ncnc(Nc3ccc(F)c(Cl)c3)c2cc1OCCCN1CCOCC1` [Gefitinib, N-(3-Chloro-4-fluorophenyl)-7-methoxy-6-(3-morpholinopropoxy) quinazolin-4-amine]: in assay [1], the “progression free survival (PFS)” value is 7.7-12.9 months.

Take “Myr-AKRWR (Myristoyl-AKRWR) [CP4, comparative peptide, L-amino acid version of P4, reference compound]”: the “permeabilization of FITC-conjugated insulin (cumulative release)” value (“permeabilization” below) in assay [2] was “slightly increased the permeabilization”.

Turning to “Myr-D-Ala D-Arg D-Arg D-Trp D-Arg [Peptide P3]”, the “permeabilization” value in assay [2] is given as “increased the permeabilization of insulin FITC to a much larger extend than the control peptide CP4”.

With “Myr-D-Ala D-Lys D-Arg D-Trp D-Arg [Peptide P4]”, the “TEER values (percentage relative to control)” value in assay [3] (t=20 min) is “decreased TEER values as compared to control solution and comparative peptide P4 (CP4)”; in assay [3] (t=40 min and t=60 min), “this effect persisted”; in assay [3] (t=80 min), “TEER values increased as compared to values measured at previous time points”. For the same molecule, the “permeabilization” value in assay [2] is “increased the permeabilization of insulin FITC to a much larger extend than the control peptide CP4”.
